From publication PMC11618438 (ACS Omega, 2024)

Legend:
MT1 [1] = molecular target: T1, MT1 (Homo sapiens, UniProt P48039); test: 2-[125I]-iodomelatonin competition binding assay, membranes of HEK293 cells; conditions: for Ki: 2-[125I]MLT binding assay, hMT1 stably expressed in HEK293 cells; for drop in binding affinity: MT1, relative to 19c
MT1 [2] = molecular target: T1, MT1; test: ERK activation; assay type: cell-based; conditions: for EC50: hMT1 cells, 5 min stimulation
MT1 [3] = molecular target: T1, MT1; test: β-arrestin2 recruitment BRET assay in HEK293 cells; assay type: cell-based; conditions: for EC50: hMT1 HEK293 cells, BRET; for effect on ß-arrestin recruitment: Figure S2C
MT1 [4] = molecular target: T1, MT1; test: cAMP accumulation assay, forskolin-stimulated HEK293 cells; assay type: cell-based; conditions: for EC50: hMT1 HEK293 cells, 1 μM forskolin
human ERα = molecular target: T2, human ERα (Homo sapiens, UniProt P03372); test: cell-based
T2 sequence (P03372 1-595): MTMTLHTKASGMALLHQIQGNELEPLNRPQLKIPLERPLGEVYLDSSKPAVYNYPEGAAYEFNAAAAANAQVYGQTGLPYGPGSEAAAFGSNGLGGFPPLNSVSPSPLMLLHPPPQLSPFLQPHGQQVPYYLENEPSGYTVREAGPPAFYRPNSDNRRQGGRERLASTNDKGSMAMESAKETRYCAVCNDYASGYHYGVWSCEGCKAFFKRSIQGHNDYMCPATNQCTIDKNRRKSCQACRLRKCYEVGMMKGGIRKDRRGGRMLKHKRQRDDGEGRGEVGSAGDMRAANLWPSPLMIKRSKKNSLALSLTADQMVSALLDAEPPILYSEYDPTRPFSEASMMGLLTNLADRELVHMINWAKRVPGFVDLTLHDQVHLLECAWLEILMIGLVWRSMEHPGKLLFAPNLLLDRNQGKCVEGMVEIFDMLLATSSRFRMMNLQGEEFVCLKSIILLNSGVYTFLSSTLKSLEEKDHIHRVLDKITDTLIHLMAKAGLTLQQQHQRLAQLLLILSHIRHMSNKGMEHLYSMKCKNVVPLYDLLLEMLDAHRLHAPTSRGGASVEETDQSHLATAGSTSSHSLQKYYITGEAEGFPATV

MDA-MB-231 = test: Cell survival by MTT assay, MDA-MB-231; assay type: cell-based; conditions: IC50 MLT+TAM versus IC50 compound
[5] = test system: human MT1 receptors expressed in CHO cells; conditions: [125I]-iodomelatonin; cited from earlier work
HT-1080 = test: Cell survival by MTT assay, HT-1080; assay type: cell-based; conditions: IC50 MLT+TAM versus IC50 compound
[6] = pEC50 ± S.E.M., ß-arrestin recruitment
[7] = pEC50 ± S.E.M., cAMP accumulation

T1 sequence (P48039 whole entry): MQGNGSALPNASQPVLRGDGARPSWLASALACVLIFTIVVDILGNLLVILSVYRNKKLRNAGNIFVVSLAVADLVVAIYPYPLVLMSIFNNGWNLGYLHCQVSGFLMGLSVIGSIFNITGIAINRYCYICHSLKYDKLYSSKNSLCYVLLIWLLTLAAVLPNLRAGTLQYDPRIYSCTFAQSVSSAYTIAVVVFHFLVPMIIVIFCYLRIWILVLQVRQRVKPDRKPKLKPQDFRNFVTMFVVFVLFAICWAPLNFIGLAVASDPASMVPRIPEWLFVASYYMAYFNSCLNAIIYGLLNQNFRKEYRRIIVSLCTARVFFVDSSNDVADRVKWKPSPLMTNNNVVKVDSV

| SMILES | Ki (MT1 [1]; Ki) | Ki (MT1 [1]; pKi ± S.E.M.) | EC50 (MT1 [2]; EC50, ERK activation) | EC50 (MT1 [2]; pEC50 ± S.E.M., ERK activation) | EC50 (MT1 [3]; EC50, ß-arrestin recruitment) | EC50 (MT1 [3]; [6]) | EC50 (MT1 [4]; EC50, cAMP accumulation) | EC50 (MT1 [4]; [7]) | drop in binding affinity (MT1 [1]) | effect on ERK activation (MT1 [2]; cells expressing MT1) | effect on ß-arrestin recruitment (MT1 [3]) | IC50 (human ERα) | sensitization versus combined melatonin and tamoxifen treatment (MDA-MB-231) | right shift of cAMP EC50 compared to Ki (MT1 [4]; MT1) | affinity, competition binding [5] | sensitization versus combined melatonin and tamoxifen treatment (HT-1080) |
| --- | --- | --- | --- | --- | --- | --- | --- | --- | --- | --- | --- | --- | --- | --- | --- | --- |
| CC/C(=C(\c1ccccc1)c1ccc(OCCN(C)CCCCCC(=O)NCCCOc2ccc3[nH]cc(CCNC(C)=O)c3c2)cc1)c1ccccc1 [16b, (Z)-N-(3-((3-(2-Acetamidoethyl)-1H-indol-5-yl)oxy)propyl)-6-((2-(4-(1,2-diphenylbut-1-en-1-yl)phenoxy)ethyl)(methyl)amino)hexanamide] | 22 nM | 20 nM | 16 nM | 13.8 nM | 999 nM | 955 nM | 987 nM | 871 nM |  |  |  |  |  |  |  |  |
| CC/C(=C(\c1ccccc1)c1ccc(OCCN(C)C(=O)CCCCOc2ccc3[nH]cc(CCNC(C)=O)c3c2)cc1)c1ccccc1 [19a, (Z)-5-((3-(2-Acetamidoethyl)-1H-indol-5-yl)oxy)-N-(2-(4-(1,2-diphenylbut-1-en-1-yl)phenoxy)ethyl)-N-methylpentanamide] | > 10000 nM |  |  |  |  | 977 nM | > 10000 nM | 8910 nM | > 1,000 fold | no effect | no effect | ~100 nM | 3.0 fold |  |  |  |
| CC/C(=C(\c1ccccc1)c1ccc(OCCN(C)C(=O)CCCCCCOc2ccc3[nH]cc(CCNC(C)=O)c3c2)cc1)c1ccccc1 [19c, (Z)-7-((3-(2-Acetamidoethyl)-1H-indol-5-yl)oxy)-N-(2-(4-(1,2-diphenylbut-1-en-1-yl)phenoxy)ethyl)-N-methylheptanamide] | 2.8 nM | 2.63 nM | 161 nM | 61.7 nM | 2230 nM | 1070 nM |  | 209 nM |  |  |  | ~100 nM |  | 2 logs |  |  |
| COc1ccc2[nH]cc(CCNC(C)=O)c2c1 [MLT, melatonin] |  |  |  |  |  |  |  |  |  |  |  |  |  |  | 8.6 nM |  |
| CC/C(=C(\c1ccccc1)c1ccc(OCCN(C)C(=O)CCCCCOc2ccc3[nH]cc(CCNC(C)=O)c3c2)cc1)c1ccccc1 [compound 19b, (Z)-6-((3-(2-Acetamidoethyl)-1H-indol-5-yl)oxy)-N-(2-(4-(1,2-diphenylbut-1-en-1-yl)phenoxy)ethyl)-N-methylhexanamide] | 3150 nM | 2950 nM | 178 nM | 120 nM | 4660 nM | 3890 nM | 389 nM | 372 nM | > 1,000 fold |  |  |  |  |  |  |  |
| CC/C(=C(\c1ccccc1)c1ccc(OCCN(C)CCOCCOCCOc2ccc3[nH]cc(CCNC(C)=O)c3c2)cc1)c1ccccc1 [compound 21, (Z)-N-(2-(5-(2-(2-(2-((2-(4-(1,2-Diphenylbut-1-en-1-yl)phenoxy)ethyl)(methyl)amino)ethoxy)ethoxy)ethoxy)-1H-indol-3-yl)ethyl)acetamide] | 6.5 nM | 6.17 nM | 36 nM | 28.2 nM | 197 nM | 138 nM | 74.3 nM | 63.1 nM |  |  | clear partial effect |  |  |  |  | 3.6 fold |
